Assay results as given in patent US11673323B2, “Fluorescent binders for use in monitoring additive manufacturing processes” (General Electric Company, priority 2020, dated 2023).
Entries after “also recorded” stand apart in the source; their conditions may differ.

Experiment: Solubility of neat fluorescent dye in water-based PVA/PAA binder solution
Conditions: 0.5 wt % fluorescent dye in binder solution (PVA, PAA, ethylene glycol, ethylene glycol butyl ether, water), stirred at 50-70° C.
Protocol: To determine whether neat dyes (e.g., unencapsulated) could be incorporated into binder solutions, various fluorescent materials were added to a binder solution including 1-7 wt % PVA, 0.5-3 wt % PAA, 2-6 wt % ethylene glycol, 4-10 wt % ethylene glycol butyl ether, and the balance water to form Samples F-H, and Comparative Samples 1-5. In particular, from 0.2-0.5 wt % of the fluorescent material (DayGlo, UMCCorp, Aldrich) was added to the binder solution and stirred on a hot plate at 50-70° C. to dissolve the dye into the binder solution.

Question: For CCCN(CCO)c1nc(Nc2ccccc2)nc(Nc2ccc(/C=C/c3ccc(Nc4nc(Nc5ccccc5)nc(N(CCO)CCO)n4)cc3S(=O)(=O)[O-])c(S(=O)(=O)[O-])c2)n1.[Na+].[Na+] [FB 28], which “Solubility at 0.5 wt %” value is on record?
Answer: Partially soluble −

Question: Which “Solubility at 0.5 wt %” value does the source give for O=S(=O)([O-])c1cc(Nc2nc(CCO)nc(Nc3ccccc3)n2)ccc1/C=C/c1ccc(Nc2nc(NCO)nc(Nc3ccccc3)n2)cc1S(=O)(=O)[O-].[Na+].[Na+] [FB 85] here?
Answer: Partially soluble −

Question: For CCCN(CCC)c1nc(Nc2ccccc2)nc(Nc2ccc(/C=C/c3ccc(Cc4nc(Cc5ccccc5)nc(N(OCC)OCC)n4)cc3S(=O)(=O)[O-])c(S(=O)(=O)[O-])c2)n1.[Na+].[Na+] [FB 113], which “Solubility at 0.5 wt %” value is on record?
Answer: Partially soluble −

Question: Which “Solubility at 0.5 wt %” value does the source give for O=S(=O)([O-])c1ccccc1C=Cc1ccc(-c2ccc(C=Cc3ccccc3S(=O)(=O)[O-])cc2)cc1.[Na+].[Na+] [FB 351] here?
Answer: Soluble

Question: And the “Solubility at 0.5 wt %” value (listed as Sample H)?
Answer: fully soluble; also recorded: good solubility
